Measured values from patent US6737383B1, “Herbicidal oxadiazolidines” (priority 1999, dated 2004).

Key:
bedstraw = test: Test B pre/postemergence bedstraw; assay type: in vivo, Galium aparine
How it was run: (§1)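 Test chemicals in a non-phytotoxic solvent mixture with surfactant were sprayed preemergence onto planted seeds and postemergence onto plants 2 to 18 cm tall (1- to 4-leaf stage). After twelve to sixteen days in a greenhouse, injury was visually rated against untreated controls from 0 (no effect) to 10 (complete control).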

surinam grass = test: Test B pre/postemergence surinam grass; assay type: in vivo, Brachiaria decumbens
How it was run: as §1

cocklebur = test: Test B pre/postemergence cocklebur; assay type: in vivo, Xanthium strumarium
How it was run: as §1

corn = test: Test B pre/postemergence corn; assay type: in vivo, Zea mays; details: for Corn plant response rating: Postemergence; for Plant response rating, Corn: Preemergence
How it was run: as §1

crabgrass = test: Test B pre/postemergence crabgrass; assay type: in vivo, Digitaria sanguinalis
How it was run: as §1

giant foxtail = test: Test B pre/postemergence giant foxtail; assay type: in vivo, Setaria faberii
How it was run: as §1

morningglory = test: Test B pre/postemergence morningglory; assay type: in vivo, Ipomoea hederacea; details: for Morningglory plant response rating: Postemergence; for Plant response rating, Morningglory: Preemergence
How it was run: as §1

pigweed = test: Test B pre/postemergence pigweed; assay type: in vivo, Amaranthus retroflexus
How it was run: as §1

rape = test: Test B pre/postemergence rape; assay type: in vivo, Brassica napus
How it was run: as §1

soybean = test: Test B pre/postemergence soybean; assay type: in vivo, Glycine max
How it was run: as §1

sugar beet = test: Test B pre/postemergence sugar beet; assay type: in vivo, Beta vulgaris
How it was run: as §1

velvetleaf = test: Test B pre/postemergence velvetleaf; assay type: in vivo, Abutilon theophrasti
How it was run: as §1

wheat = test: Test B pre/postemergence wheat; assay type: in vivo, Triticum aestivum
How it was run: as §1

purple nutsedge = test: Test B pre/postemergence purple nutsedge; assay type: in vivo, Cyperus rotundus
How it was run: as §1

duck salad = test: Test B flood test duck salad; assay type: in vivo, Heteranthera limosa
How it was run: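 Plants were grown to the 2-leaf stage before treatment with test chemical, then held in a greenhouse for twelve to sixteen days. Injury was visually rated against untreated controls on a 0–10 scale, where 0 is no effect and 10 is complete control.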

[1] = Postemergence, Rate 62 g/ha, scale 0 to 10, 0 is no effect, 10 is complete control
[2] = Postemergence, Rate 250 g/ha, scale 0 to 10, 0 no effect, 10 complete control
[3] = Preemergence, Rate 62 g/ha, scale 0 to 10, 0 is no effect, 10 is complete control
[4] = Preemergence, Rate 125 g/ha, scale 0 to 10 (0 no effect, 10 complete control)
[5] = Preemergence, Rate 250 g/ha, scale of 0 to 10 where 0 is no effect and 10 is complete control
[6] = Preemergence, Rate 500 g/ha, scale 0 (no effect) to 10 (complete control)
[7] = Rate 125 g/ha, Postemergence, scale 0 to 10, 0 no effect, 10 complete control
[8] = Rate 500 g/ha, Postemergence, scale 0 to 10, 0 no effect, 10 complete control
[9] = Rate 62 g/ha, scale 0 to 10, 0 is no effect, 10 is complete control
[10] = Rate 250 g/ha, scale 0 to 10, 0 no effect, 10 complete control
[11] = Rate 125 g/ha, scale 0 to 10 (0 no effect, 10 complete control)
[12] = Rate 250 g/ha, scale of 0 to 10 where 0 is no effect and 10 is complete control
[13] = Rate 125 g/ha, scale 0 to 10, 0 no effect, 10 complete control
[14] = Rate 500 g/ha, scale 0 to 10, 0 no effect, 10 complete control

SMILES: Cc1cccc(Cl)c1-n1c(=O)on(C(=O)N(c2ccc(Cl)cc2)C(C)C)c1=O [Compound 54]
- Bedstraw plant response rating (bedstraw; [1]): 0
- Bedstraw plant response rating (bedstraw; [2]): 4
- Plant response rating, Bedstraw (bedstraw; [3]): 0
- Plant response rating, Bedstraw (bedstraw; [4]): 0
- Plant response rating, Bedstraw (bedstraw; [5]): 0
- Bedstraw plant response rating (bedstraw; [6]): — — 0 0 0
- Bedstraw plant response rating (bedstraw; [7]): 0
- Bedstraw plant response rating (bedstraw; [8]): 7
- B. signalgrass plant response rating (surinam grass; [1]): 0
- B. signalgrass plant response rating (surinam grass; [2]): 0
- Plant response rating, B. signalgrass (surinam grass; [3]): 0
- Plant response rating, B. signalgrass (surinam grass; [4]): 0
- Plant response rating, B. signalgrass (surinam grass; [5]): 0
- B. signalgrass plant response rating (surinam grass; [6]): 2
- B. signalgrass plant response rating (surinam grass; [7]): 0
- B. signalgrass plant response rating (surinam grass; Rate 500 g/ha, Postemergence, scale of 0 to 10 where 0 is no effect and 10 is complete control): 0
- Cocklebur plant response rating (cocklebur; [1]): 0
- Cocklebur plant response rating (cocklebur; [2]): 0
- Plant response rating, Cocklebur (cocklebur; [3]): 0
- Plant response rating, Cocklebur (cocklebur; [4]): 0
- Plant response rating, Cocklebur (cocklebur; [5]): 0
- Cocklebur plant response rating (cocklebur; [6]): — 0 0 0 0
- Cocklebur plant response rating (cocklebur; [7]): 0
- Cocklebur plant response rating (cocklebur; [8]): 2
- Corn plant response rating (corn; [9]): 0
- Corn plant response rating (corn; [10]): 0
- Plant response rating, Corn (corn; [9]): 0
- Plant response rating, Corn (corn; [11]): 0
- Plant response rating, Corn (corn; [12]): 0
- Corn plant response rating (corn; [13]): 0
- Corn plant response rating (corn; [14]): 0
- Crabgrass plant response rating (crabgrass; [1]): 0
- Crabgrass plant response rating (crabgrass; [2]): 2
- Plant response rating, Crabgrass (crabgrass; [3]): 2
- Plant response rating, Crabgrass (crabgrass; [4]): 2
- Plant response rating, Crabgrass (crabgrass; [5]): 3
- Crabgrass plant response rating (crabgrass; [6]): 8
- Crabgrass plant response rating (crabgrass; [7]): 0
- Crabgrass plant response rating (crabgrass; [8]): 5
- Giant foxtail plant response rating (giant foxtail; [1]): 3
- Giant foxtail plant response rating (giant foxtail; [2]): 3
- Plant response rating, Giant foxtail (giant foxtail; [3]): 2
- Plant response rating, Giant foxtail (giant foxtail; [4]): 3
- Plant response rating, Giant foxtail (giant foxtail; [5]): 3
- Giant foxtail plant response rating (giant foxtail; [6]): 7
- Giant foxtail plant response rating (giant foxtail; [7]): 3
- Giant foxtail plant response rating (giant foxtail; [8]): 5
- Morningglory plant response rating (morningglory; [9]): 0
- Morningglory plant response rating (morningglory; [10]): 2
- Plant response rating, Morningglory (morningglory; [9]): 0
- Plant response rating, Morningglory (morningglory; [11]): 0
- Plant response rating, Morningglory (morningglory; [12]): 0
- Morningglory plant response rating (morningglory; [13]): 0
- Morningglory plant response rating (morningglory; [14]): 2
- Redroot pigweed plant response rating (pigweed; [1]): 0
- Redroot pigweed plant response rating (pigweed; [2]): 2
- Plant response rating, Redroot pigweed (pigweed; [3]): 0
- Plant response rating, Redroot pigweed (pigweed; [4]): 0
- Plant response rating, Redroot pigweed (pigweed; [5]): 0
- Redroot pigweed plant response rating (pigweed; [6]): 0
- Redroot pigweed plant response rating (pigweed; [7]): 0
- Redroot pigweed plant response rating (pigweed; [8]): 4
- Rape plant response rating (rape; [1]): 0
- Rape plant response rating (rape; [2]): 0
- Plant response rating, Rape (rape; [3]): 0
- Plant response rating, Rape (rape; [4]): 0
- Plant response rating, Rape (rape; [5]): 0
- Rape plant response rating (rape; [6]): 0
- Rape plant response rating (rape; [7]): 0
- Rape plant response rating (rape; [8]): 0
- Soybean plant response rating (soybean; [1]): 0
- Soybean plant response rating (soybean; [2]): 0
- Plant response rating, Soybean (soybean; [3]): 0
- Plant response rating, Soybean (soybean; [4]): 0
- Plant response rating, Soybean (soybean; [5]): 0
- Soybean plant response rating (soybean; [6]): 0
- Soybean plant response rating (soybean; [7]): 0
- Soybean plant response rating (soybean; [8]): 0
- Sugarbeets plant response rating (sugar beet; [1]): 0
- Sugarbeets plant response rating (sugar beet; [2]): 0
- Plant response rating, Sugarbeets (sugar beet; [3]): 0
- Plant response rating, Sugarbeets (sugar beet; [4]): 0
- Plant response rating, Sugarbeets (sugar beet; [5]): 0
- Sugarbeets plant response rating (sugar beet; [6]): 0
- Sugarbeets plant response rating (sugar beet; [7]): 0
- Sugarbeets plant response rating (sugar beet; [8]): 0
- Velvetleaf plant response rating (velvetleaf; [1]): 0
- Velvetleaf plant response rating (velvetleaf; [2]): 0
- Plant response rating, Velvetleaf (velvetleaf; [3]): 0
- Plant response rating, Velvetleaf (velvetleaf; [4]): 0
- Plant response rating, Velvetleaf (velvetleaf; [5]): 0
- Velvetleaf plant response rating (velvetleaf; [6]): 0
- Velvetleaf plant response rating (velvetleaf; [7]): 0
- Velvetleaf plant response rating (velvetleaf; [8]): 0
- Wheat plant response rating (wheat; [1]): 0
- Wheat plant response rating (wheat; [2]): 0
- Plant response rating, Wheat (wheat; [3]): 0
- Plant response rating, Wheat (wheat; [4]): 0
- Plant response rating, Wheat (wheat; [5]): 0
- Wheat plant response rating (wheat; [6]): 0
- Wheat plant response rating (wheat; [7]): 0
- Wheat plant response rating (wheat; [8]): 0
- Nutsedge plant response rating (purple nutsedge; [1]): 0
- Nutsedge plant response rating (purple nutsedge; [2]): 0
- Plant response rating, Nutsedge (purple nutsedge; [3]): 0
- Plant response rating, Nutsedge (purple nutsedge; [4]): 0
- Plant response rating, Nutsedge (purple nutsedge; [5]): 0
- Nutsedge plant response rating (purple nutsedge; [6]): 0
- Nutsedge plant response rating (purple nutsedge; [7]): 0
- Nutsedge plant response rating (purple nutsedge; [8]): 0
- Ducksalad plant response rating (duck salad; [1]): 0
- Ducksalad plant response rating (duck salad; Rate 125 g/ha, Postemergence section (flood test species), scale 0 to 10, 0 no effect, 10 complete control): 0
- Ducksalad plant response rating (duck salad; Rate 500 g/ha, listed under Postemergence (flood test species), scale 0 to 10, 0 no effect, 10 complete control): 0
- Ducksalad plant response rating (duck salad; flood test, listed under Postemergence, Rate 250 g/ha, scale 0 to 10, 0 no effect, 10 complete control): 0
